Measured values reported in PubChem BioAssay AID1963425 (Molecular Pharmacology Branch, DTP, NCI, 2024).
Values belong to the molecule of their own block, whether it stands above or below them.

Test system: 323965-272-R-J2-PDC complex spheroid growth, % test/control
Test: Anticancer human tumor 323965-272-R-J2-PDC patient-derived pancreatic carcinoma cell line growth inhibition [Asc]
Conditions: for IC50: curve of first compound; for viability, T/C: stronger effect = lower value
How it was run: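 Complex spheroids combining tumor cells with HUVEC endothelial cells and human MSCs, at 37 degrees C, 5% CO2; agents tested alone or combined, half-log dilutions from at or near clinical Cmax, or 10 microM if Cmax unknown.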

[1] = second compound 0.00949 µM, first compound 0.00316 µM
[2] = second compound 0.00949 µM, first compound 0.01 µM
[3] = second compound 0.00949 µM, first compound 0.0316 µM
[4] = second compound 0.00949 µM, first compound 0.1 µM
[5] = second compound 0.03 µM, first compound 0.00316 µM
[6] = second compound 0.03 µM, first compound 0.01 µM
[7] = second compound 0.03 µM, first compound 0.0316 µM
[8] = second compound 0.03 µM, first compound 0.1 µM
[9] = second compound 0.0949 µM, first compound 0.00316 µM
[10] = second compound 0.0949 µM, first compound 0.01 µM
[11] = second compound 0.0949 µM, first compound 0.0316 µM
[12] = second compound 0.0949 µM, first compound 0.1 µM
[13] = second compound 0.3 µM, first compound 0.00316 µM
[14] = second compound 0.3 µM, first compound 0.01 µM
[15] = second compound 0.3 µM, first compound 0.0316 µM
[16] = second compound 0.3 µM, first compound 0.1 µM
[17] = second compound 0.949 µM, first compound 0.00316 µM
[18] = second compound 0.949 µM, first compound 0.01 µM
[19] = second compound 0.949 µM, first compound 0.0316 µM
[20] = second compound 0.949 µM, first compound 0.1 µM
[21] = second compound 3 µM, first compound 0.00316 µM
[22] = second compound 3 µM, first compound 0.01 µM
[23] = second compound 3 µM, first compound 0.0316 µM
[24] = second compound 3 µM, first compound 0.1 µM
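Note: compound exposure lasted 7 days starting three days after spheroid seeding.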
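Throughout, for viability, T/C: 100% = DMSO vehicle control wells with viability set relative to vehicle.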

IC50 (second compound 0.00949 µM): 0.151 µM | IC50 (second compound 0.03 µM): 0.13 µM | IC50 (second compound 0.0949 µM): 0.13 µM | IC50 (second compound 0.3 µM): 0.133 µM | IC50 (second compound 0.949 µM): 0.138 µM | IC50 (second compound 3 µM): 0.102 µM
SMILES: COc1c(OCCCN2CCOCC2)ccc2c3n(c(=NC(=O)c4cnc(N)nc4)nc12)CCN3 + CCN1C(C(=O)NC23CCC(C(=O)O)(CC2)CC3)C(c2cccc(Cl)c2F)C2(C(=O)Nc3cc(Cl)ccc32)C12CCCCC2
viability, T/C [1]: 96% | viability, T/C [2]: 97.7% | viability, T/C [3]: 70.7% | viability, T/C [4]: 62.5% | viability, T/C (second compound 0.00949 µM, first compound 0.316 µM): 34.2% | viability, T/C (second compound 0.00949 µM, first compound 1 µM): 25.7% | viability, T/C [5]: 103% | viability, T/C [6]: 96.4% | viability, T/C [7]: 73.3% | viability, T/C [8]: 52.2% | viability, T/C (second compound 0.03 µM, first compound 0.316 µM): 42.2% | viability, T/C (second compound 0.03 µM, first compound 1 µM): 30.4% | viability, T/C [9]: 97% | viability, T/C [10]: 85.6% | viability, T/C [11]: 78.5% | viability, T/C [12]: 50.7% | viability, T/C (second compound 0.0949 µM, first compound 0.316 µM): 38.4% | viability, T/C (second compound 0.0949 µM, first compound 1 µM): 25.5% | viability, T/C [13]: 101% | viability, T/C [14]: 89.2% | viability, T/C [15]: 69.8% | viability, T/C [16]: 56.3% | viability, T/C (second compound 0.3 µM, first compound 0.316 µM): 36.6% | viability, T/C (second compound 0.3 µM, first compound 1 µM): 27.6% | viability, T/C [17]: 99.7% | viability, T/C [18]: 82.7% | viability, T/C [19]: 70.3% | viability, T/C [20]: 51% | viability, T/C (second compound 0.949 µM, first compound 0.316 µM): 42.3% | viability, T/C (second compound 0.949 µM, first compound 1 µM): 30.1% | viability, T/C [21]: 89.4% | viability, T/C [22]: 82.4% | viability, T/C [23]: 63.9% | viability, T/C [24]: 49.6% | viability, T/C (second compound 3 µM, first compound 0.316 µM): 38.5% | viability, T/C (second compound 3 µM, first compound 1 µM): 26%

IC50 (second compound 0.00949 µM): > 0.3 µM | IC50 (second compound 0.03 µM): > 0.3 µM | IC50 (second compound 0.0949 µM): > 0.3 µM | IC50 (second compound 0.3 µM): > 0.3 µM | IC50 (second compound 0.949 µM): > 0.3 µM | IC50 (second compound 3 µM): > 0.3 µM
SMILES: NC(=O)C(=Cn1cnc(-c2cc(C(F)(F)F)cc(C(F)(F)F)c2)n1)c1cncnc1 + CCN1C(C(=O)NC23CCC(C(=O)O)(CC2)CC3)C(c2cccc(Cl)c2F)C2(C(=O)Nc3cc(Cl)ccc32)C12CCCCC2
viability, T/C (second compound 0.00949 µM, first compound 0.000949 µM): 108% | viability, T/C (second compound 0.00949 µM, first compound 0.003 µM): 100% | viability, T/C (second compound 0.00949 µM, first compound 0.00949 µM): 98% | viability, T/C (second compound 0.00949 µM, first compound 0.03 µM): 105% | viability, T/C (second compound 0.00949 µM, first compound 0.0949 µM): 86.3% | viability, T/C (second compound 0.00949 µM, first compound 0.3 µM): 57.9% | viability, T/C (second compound 0.03 µM, first compound 0.000949 µM): 109% | viability, T/C (second compound 0.03 µM, first compound 0.003 µM): 105% | viability, T/C (second compound 0.03 µM, first compound 0.00949 µM): 96.8% | viability, T/C (second compound 0.03 µM, first compound 0.03 µM): 99.8% | viability, T/C (second compound 0.03 µM, first compound 0.0949 µM): 90% | viability, T/C (second compound 0.03 µM, first compound 0.3 µM): 68% | viability, T/C (second compound 0.0949 µM, first compound 0.000949 µM): 111% | viability, T/C (second compound 0.0949 µM, first compound 0.003 µM): 101% | viability, T/C (second compound 0.0949 µM, first compound 0.00949 µM): 109% | viability, T/C (second compound 0.0949 µM, first compound 0.03 µM): 100% | viability, T/C (second compound 0.0949 µM, first compound 0.0949 µM): 91.7% | viability, T/C (second compound 0.0949 µM, first compound 0.3 µM): 55.5% | viability, T/C (second compound 0.3 µM, first compound 0.000949 µM): 101% | viability, T/C (second compound 0.3 µM, first compound 0.003 µM): 103% | viability, T/C (second compound 0.3 µM, first compound 0.00949 µM): 101% | viability, T/C (second compound 0.3 µM, first compound 0.03 µM): 99% | viability, T/C (second compound 0.3 µM, first compound 0.0949 µM): 88.7% | viability, T/C (second compound 0.3 µM, first compound 0.3 µM): 55.2% | viability, T/C (second compound 0.949 µM, first compound 0.000949 µM): 103% | viability, T/C (second compound 0.949 µM, first compound 0.003 µM): 93.9% | viability, T/C (second compound 0.949 µM, first compound 0.00949 µM): 84.3% | viability, T/C (second compound 0.949 µM, first compound 0.03 µM): 87.7% | viability, T/C (second compound 0.949 µM, first compound 0.0949 µM): 85.7% | viability, T/C (second compound 0.949 µM, first compound 0.3 µM): 53.6% | viability, T/C (second compound 3 µM, first compound 0.000949 µM): 94% | viability, T/C (second compound 3 µM, first compound 0.003 µM): 101% | viability, T/C (second compound 3 µM, first compound 0.00949 µM): 89.5% | viability, T/C (second compound 3 µM, first compound 0.03 µM): 85.2% | viability, T/C (second compound 3 µM, first compound 0.0949 µM): 82.3% | viability, T/C (second compound 3 µM, first compound 0.3 µM): 53%

IC50 (second compound 0.00949 µM): > 0.1 µM | IC50 (second compound 0.03 µM): > 0.1 µM | IC50 (second compound 0.0949 µM): > 0.1 µM | IC50 (second compound 0.3 µM): > 0.1 µM | IC50 (second compound 0.949 µM): > 0.1 µM | IC50 (second compound 3 µM): > 0.1 µM
SMILES: NC1CCC(NC2CC2c2ccccc2)CC1 (stereo unspecified) + CCN1C(C(=O)NC23CCC(C(=O)O)(CC2)CC3)C(c2cccc(Cl)c2F)C2(C(=O)Nc3cc(Cl)ccc32)C12CCCCC2
viability, T/C (second compound 0.00949 µM, first compound 0.000316 µM): 98.9% | viability, T/C (second compound 0.00949 µM, first compound 0.001 µM): 94.2% | viability, T/C [1]: 94.8% | viability, T/C [2]: 97.5% | viability, T/C [3]: 98.2% | viability, T/C [4]: 88.2% | viability, T/C (second compound 0.03 µM, first compound 0.000316 µM): 97.3% | viability, T/C (second compound 0.03 µM, first compound 0.001 µM): 99.5% | viability, T/C [5]: 103% | viability, T/C [6]: 102% | viability, T/C [7]: 97.9% | viability, T/C [8]: 92.8% | viability, T/C (second compound 0.0949 µM, first compound 0.000316 µM): 116% | viability, T/C (second compound 0.0949 µM, first compound 0.001 µM): 91% | viability, T/C [9]: 104% | viability, T/C [10]: 99.9% | viability, T/C [11]: 101% | viability, T/C [12]: 88.9% | viability, T/C (second compound 0.3 µM, first compound 0.000316 µM): 99.6% | viability, T/C (second compound 0.3 µM, first compound 0.001 µM): 94.2% | viability, T/C [13]: 101% | viability, T/C [14]: 96.8% | viability, T/C [15]: 99.7% | viability, T/C [16]: 88.3% | viability, T/C (second compound 0.949 µM, first compound 0.000316 µM): 102% | viability, T/C (second compound 0.949 µM, first compound 0.001 µM): 95.5% | viability, T/C [17]: 94.8% | viability, T/C [18]: 92.5% | viability, T/C [19]: 106% | viability, T/C [20]: 96% | viability, T/C (second compound 3 µM, first compound 0.000316 µM): 98.6% | viability, T/C (second compound 3 µM, first compound 0.001 µM): 88.3% | viability, T/C [21]: 90.2% | viability, T/C [22]: 97.2% | viability, T/C [23]: 96.4% | viability, T/C [24]: 87.7%
